Assay results reported in patent publication US7960339B2, “Antimicrobial peptides” (Österreichische Akademie der Wissenschaften, priority 2006, dated 2011).
Like-named read-outs stand apart in the source and are kept apart here. Ends that are not written are not given here. Peptide text beside a SMILES is read from it. * marks the point of attachment. Butanoyl(2,2-Me2) = CCC(C)(C)C(=O)*; Octanoyl(6-Me) = CCC(C)CCCCC(=O)*

Experiments:
[1] = tested on: C. neoformans ATCC 32045; format: cell-based
Procedure, shortened: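 Fungal inoculum was about 1×10^5 to 5×10^5 CFU/ml in 2×YM broth, added to peptides dispensed at 1 mg/ml to 1 μg/ml in twofold serial dilutions. After 72 hrs at 26° C, relative growth was read as OD620. IC50 values came from sigmoidal curve fitting.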

[2] = tested on: LPS Re595; assay: Local Shwartzmann reaction in rabbit (lipid A-induced hemorrhagic dermonecrosis); format: in vivo, New Zealand White rabbits; settings: i.d. injection in shaved dorsal region; open necrosis observed after 72-96 hours; minimum 3 injections in minimum 3 rabbits
Description: (§1) The principle of lipid A-induced pro-inflammatory cytokine activity leading to hemorrhagic dermonecrosis (classical Shwartzmann reaction) was tested in rabbit, an animal model very close to humans in terms of sensitivity to LPS activity, and was compared to the inhibition of the lipid A-induced LAL enzymatic cascade activation leading to clot. Thereby, New Zealand White rabbits were injected in the shaved dorsal region with S. minnesota Re595 lipid A alone or with peptide 1:100 (w/w) (5 μg in 0.2 ml saline buffer; route i.d.). […] Polymyxin B (PmB) was used as a control.

[3] = tested on: LPS S. Minnesota Re595; assay: Endpoint LAL activity (Limulus gel-clotting test), inhibition of lipid A-induced LAL enzymatic cascade; format: biochemical; settings: sensibility 0.125 EU/ml, peptide:LPS 100:1 (w/w), minimum of 6 tests in triplicate
Description: as §1

[4] = tested on: MonoMac6 cells; assay: Release of TNFα from MonoMac6 cells stimulated by bacteria killed with antibiotics or peptides (ELISA); format: cell-based; settings: E. coli strain 0:111 incubated over night with agent, then 15 hours on 10^5 MonoMac6 cells; FIG. 5
Description: Bacteria can be killed by different antibiotics, targeting different molecules essential for bacterial survival. When Gram-negative bacteria are killed, released LPS can stimulate production of cytokines, such as TNFα, or other inflammatory mediators. Comparison of well-established antimicrobial agents acting through different cellular targets with compounds of this invention were done in the following manner: bacteria (E. coli strain 0:111) were grown in LB medium to the absorbance at 600 nm of 0.4 and diluted 2500 fold in RPMI medium with added glucose. Different concentrations of antibiotics or peptides from this invention were added and incubated over night. 80 μl of cell suspension was added to the 100 μl containing 10^5 MonoMac6 cells and after 15 hours the release of TNFα to the medium was determined using ELISA test.

[5] = tested on: E. coli (strain 0:111); assay: Antimicrobial assay with peptide immobilized on magnetic particles; format: cell-based; settings: over night
Description: Peptide P2-32 (500 μg) was covalently bound to the cyanuric chloride-activated magnetic particles (10 mg) (Chemicell, Product number 1314) using phosphate buffer saline pH=7.5. After mixing the suspension on a shaker for 2 hours at room temperature the blocking buffer (PBS pH=7.5 and 2% ethanolamine) were added and mixed the suspension on a shaker for 30 minutes at room temperatures. The particles were washed twice with PBS. Immobilized peptides were tested against E. coli (strain 0:111) grown in LB medium to the absorbance at 600 nm of 0.4 and diluted 2500 fold in LB medium. Different concentrations of magnetic particles immobilized with peptides were added and incubated over night.

[6] = tested on: E. coli LPS; assay: Mouse model of acute endotoxemia (LPS plus galactosamine); format: in vivo, ICR-CD1 mice; settings: 150 μg intraperitoneal immediately after 0.3 μg E. coli LPS + 18 mg galactosamine; monitored until 168 hours
Description: Mice are remarkably resistant to LPS-mediated septic shock. However, the sensitivity of mice to endotoxin can be potentiated by coinjecting LPS with galactosamine. Groups of 16-18 female ICR-CD1 mice of 20-25 g of weight were intraperitoneally injected with 200 μl of pyrogen-free saline containing a mixture of 0.3 μg of E. coli LPS and 18 mg of galactosamine. Previous experiments allowed to determine that such a combination was lethal for 90% (LD90) of the animals 48 h after the injection. Immediately after this challenge, mice received a second intraperitoneal injection at a different site of the abdomen containing 150 μg of the peptide dissolved in 150 μl of 10% DMF pyrogen-free saline. In all the experiments a group of mice was left untreated whereas another group received 150 μg of polymyxin B. Mortality of the animals was monitored at daily intervals until 168 hours postchallenge.

[7] = 50% growth inhibition, OD620, 72 hrs at 26° C., 2×YM broth
[8] = lowest concentration that resulted in 2% growth, OD620, 72 hrs at 26° C., 2×YM broth

| Molecule | average IC50 [1, 7] [µg/mL] | average MIC [1, 8] [µg/mL] | Local Shwartzmann reaction in rabbit peptide: LPS Re595 100:1 (w/w) [2] | Endpoint LAL activity peptide: LPS Re595 100:1 (w/w) [3] | release of TNFα / stimulation of the monocytes [4] | other results |
| --- | --- | --- | --- | --- | --- | --- |
| CC[C@H](C)[C@H](NC(=O)[C@H](CCCNC(=N)N)NC(=O)[C@H](CCCNC(=N)N)NC(=O)[C@H](CCC(N)=O)NC(=O)[C@H](Cc1c[nH]c2ccccc12)NC(=O)[C@@H](N)Cc1ccccc1)C(=O)N[C@@H](CCCNC(=N)N)C(=O)N[C@@H](CCCNC(=N)N)C(=O)N[C@@H](Cc1c[nH]c2ccccc12)C(=O)N[C@@H](CCCNC(=N)N)C(=O)N[C@@H](CCCNC(=N)N)C(N)=O [VS1-18, FWQRRIRRWRR-NH2] (H-FWQRRIRRWRR-NH2; N-terminus assumed) | 7 | 32 | NEGATIVE | NEGATIVE | – | – |
| CC[C@H](C)[C@H](NC(=O)[C@H](CCCNC(=N)N)NC(=O)[C@@H](NC(=O)[C@H](CCCNC(=N)N)NC(=O)[C@H](Cc1c[nH]c2ccccc12)NC(=O)[C@H](Cc1ccccc1)NC(=O)[C@@H]1CCCN1)[C@@H](C)CC)C(=O)N[C@@H](CCCNC(=N)N)C(=O)N[C@@H](CCCNC(=N)N)C(N)=O [VS1-22, PFWRIRIRR-NH2] (H-PFWRIRIRR-NH2; N-terminus assumed) | 2 | 8 | NEGATIVE | NEGATIVE | significantly inhibited the release of TNFα | – |
| CC[C@H](C)[C@H](NC(=O)[C@H](CC(N)=O)NC(=O)[C@H](CCCNC(=N)N)NC(=O)[C@H](CCC(N)=O)NC(=O)[C@H](Cc1c[nH]c2ccccc12)NC(=O)[C@H](Cc1ccccc1)NC(=O)C(C)(C)CC)C(=O)N[C@@H](CCCNC(=N)N)C(=O)N[C@@H](CCCCN)C(=O)N[C@@H](Cc1c[nH]c2ccccc12)C(=O)N[C@@H](CCCNC(=N)N)C(N)=O [VS1-42, 2,2-dimethylbutanoyl FWQRNIRKWR-NH2] ({Butanoyl(2,2-Me2)}-FWQRNIRKWR-NH2) | 6 | 16 | NEGATIVE | NEGATIVE | – | – |
| CC[C@H](C)[C@H](NC(=O)[C@H](CCCNC(=N)N)NC(=O)[C@@H](NC(=O)[C@H](CCCNC(=N)N)NC(=O)[C@H](Cc1c[nH]c2ccccc12)NC(=O)[C@H](Cc1ccccc1)NC(=O)[C@@H]1CCCN1C(=O)C(C)(C)CC)[C@@H](C)CC)C(=O)N[C@@H](CCCNC(=N)N)C(=O)N[C@@H](CCCNC(=N)N)C(N)=O [VS1-52, 2,2-dimethylbutanoyl PFWRIRIRR-NH2] ({Butanoyl(2,2-Me2)}-PFWRIRIRR-NH2) | 2 | 4 | NEGATIVE | NEGATIVE | – | – |
| CCC(C)CCCCC(=O)N1CCC[C@H]1C(=O)N[C@@H](Cc1ccccc1)C(=O)N[C@@H](Cc1c[nH]c2ccccc12)C(=O)N[C@@H](CCCNC(=N)N)C(=O)N[C@H](C(=O)N[C@@H](CCCNC(=N)N)C(=O)N[C@H](C(=O)N[C@@H](CCCNC(=N)N)C(=O)N[C@@H](CCCNC(=N)N)C(N)=O)[C@@H](C)CC)[C@@H](C)CC (some centres unmarked) [VS1-53, 6-methyloctanoyl PFWRIRIRR-NH2] ({Octanoyl(6-Me)}-PFWRIRIRR-NH2) | – | – | – | – | significantly inhibited the release of TNFα | average IC50 ([1]; ATCC 32045, 72 h): 6 µg/mL; average MIC ([1]; ATCC 32045, 72 h): 16 µg/mL |
| O=C(N[C@H](CO)[C@H](O)c1ccc([N+](=O)[O-])cc1)C(Cl)Cl [chloramphenicol] | – | – | – | – | high stimulation of the monocytes | – |
| FIWRWRWR-NH2 (also: bound to magnetic particles) [Peptide P2-32] | – | – | – | – | – | bacterial growth ([5]; 0.25 mg immobilized magnetic particles, 100 μl diluted E. coli in LB): not-inhibited; bacterial growth ([5]; 0.5 mg immobilized magnetic particles, 100 μl diluted E. coli in LB): not-inhibited; bacterial growth ([5]; 1 mg immobilized magnetic particles, 100 μl diluted E. coli in LB): inhibited; bacterial growth ([5]; 2.5 mg immobilized magnetic particles, 100 μl diluted E. coli in LB): inhibited; bacterial growth ([5]; 5 mg immobilized magnetic particles, 100 μl diluted E. coli in LB): inhibited; bacterial growth ([5]; 50, 25 and 10 mg/ml concentrations of immobilized magnetic particles): prevented bacterial growth |
| penicilin | – | – | – | – | high stimulation of the monocytes | – |
| polymyxin B [PmB, reference compound] | – | – | NEGATIVE | NEGATIVE | significantly inhibited the release of TNFα | protection against endotoxic shock (mortality) [6]: did not confer significant protection |
